Values of other authors as cited in US6537525B1, “Medicated chewing-gum” (priority 1997, dated 2003).

Experiments:
[1] = antacid; versus magnesium trisilicate or magnesium carbonate
[2] = test system: esophageal lesions associated with heartburn; settings: versus placebo or ranitidine

Structure (SMILES)	potency relative to magnesium trisilicate or magnesium carbonate [1] [times]	effectiveness in the healing of esophageal lesions associated with heartburn [2]
[O]=[Mg] [Magnesium oxide, magnesium oxide]	8 to 10	–
NC(N)=Nc1nc(CSCCC(N)=NS(N)(=O)=O)cs1 [Famotidine]	–	significantly more effective than placebo or ranitidine
